The NIST ThermoML archive (doi:10.1021/acs.jced.9b00422)
Numbers after ± are expanded uncertainties. Values belong to the compound of their own block, whether it stands above or below them.

Experiment: wn = mass fraction of the nth substance listed
Settings: 323 K, 101.3 kPa, Liquid, Pycnometric method

mass density (w1 = 0.568): 1538.2 ± 6.6 kg/m3
SMILES: [Ca+2].[Cl-].[Cl-] [calcium chloride] + O

mass density (w1 = 0.2722): 1175 ± 2.4 kg/m3
SMILES: [Cl-].[Na+] [sodium chloride] + O

mass density (w1 = 0.8225): 2274.8 ± 7 kg/m3
SMILES: [Cl-].[Cl-].[Zn+2] [zinc chloride] + O
